Results published in patent US20220064195A1, “SYNTHETIC I2 IMIDAZOLINE RECEPTOR LIGANDS FOR PREVENTION OR TREATMENT OF HUMAN BRAIN DISORDERS” (Universitat de Barcelona, priority 2018, published 2022).
Values joined by “and” are separate entries in the source; they are usually repeats but may differ in a detail not shown here. Equal entries are not always repeated. Where two headings read alike, the source gives them in different places.

Experiments:
in vitro = conditions: pig, PAMPA
Protocol: (§1) To evaluate the brain penetration of the different compounds, a parallel artificial membrane permeation assay for blood-brain barrier was used, following the method described by Di et al. (cf. Table 2). The in vitro permeability (Pe) of fourteen commercial drugs through lipid extract of porcine brain membrane together with the test compounds were determined. Commercial drugs and assayed compounds were tested using a mixture of PBS:EtOH (70:30).

[1] = for CNS Prediction: predictive penetration in the CNS from PAMPA-BBB Pe
Protocol: as §1

I2-IR = test: Competition binding against the selective I2-IR radioligand [3H]-2-BFI in membranes from post-mortem human frontal cortex; conditions: for [^3H]-2-BFI I2 binding affinity (pKi): membranes from post-mortem human frontal cortex, radioligand [3H]-2-BFI

Structure (SMILES): CCOP(=O)(OCC)[C@]1(c2ccccc2)N=C[C@H]2C(=O)N(c3cccc4ccccc34)C(=O)[C@H]21 (racemic) [Compound I-56, Diethyl (1RS,3aSR,6aSR)-5-(naphth-1-yl)-4,6-dioxo-1-phenyl-1,3a,4,5,6,6a-hexahydropyrrolo[3,4-c]pyrrole-1-phosphonate]
- Papp (in vitro): 1.4 ± 0.06 ×10⁻⁶ cm/s
- CNS Prediction [1]: CNS− (compounds of low BBB permeation (CNS−): Pe (10^−6 cm s^−1)<2,083)

Structure (SMILES): CCCN1C(=O)[C@@H]2[C@@H](C=N[C@@]2(c2ccccc2)P(=O)(OCC)OCC)C1=O (racemic) [Compound I-51, Diethyl (1RS,3aSR,6aSR)-4,6-dioxo-1-phenyl-5-propyl-1,3a,4,5,6,6a-hexahydropyrrolo[3,4-c]pyrrole-1-phosphonate]
- Papp (in vitro): 6.2 ± 0.3 ×10⁻⁶ cm/s
- CNS Prediction [1]: CNS+ (compounds of high BBB permeation (CNS+): Pe (10^−6 cm s^−1)>5,179)

Structure (SMILES): CCOP(=O)(OCC)[C@]1(C)N=C[C@H]2C(=O)N(C)C(=O)[C@H]21 (racemic) [Compound I-25, Diethyl (1RS,3aRS,6aRS)-1,5-dimethyl-4,6-dioxo-1,3a,4,5,6,6a-hexahydropyrrolo[3,4-c]pyrrole-1-phosphonate]
- Papp (in vitro): 4.6 ± 0.7 ×10⁻⁶ cm/s
- Selectivity I2/α2 (I2-IR; antilogarithm of the difference between pKi for I2-IR and pKi for α2-AR): 19
- [^3H]-2-BFI I2 binding affinity (pKi) (I2-IR): 8.57 ± 0.39
- CNS Prediction [1]: CNS+/− (compounds of uncertain BBB permeation (CNS+/−): 5,179>Pe (10^−6 cm s^−1)>2,083)

Structure (SMILES): CCOP(=O)(OCC)[C@]1(c2ccccc2)N=C[C@H]2C(=O)N(c3cccc(C(F)(F)F)c3)C(=O)[C@H]21 (racemic) [Compound I-52, Diethyl (1RS,3aSR,6aSR)-4,6-dioxo-1-phenyl-5-[3-(trifluoromethyl)phenyl]-1,3a,4,5,6,6a-hexahydropyrrolo[3,4-c]pyrrole-1-phosphonate]
- Papp (in vitro): 6.9 ± 0.2 ×10⁻⁶ cm/s
- CNS Prediction [1]: CNS+ (compounds of high BBB permeation (CNS+): Pe (10^−6 cm s^−1)>5,179)

Structure (SMILES): CCn1cc(C(=O)O)c(=O)c2cc(F)c(N3CCNCC3)cc21 [norfloxacine, reference compound]
- Permeability (Pe) Experimental value ± SD (n = 3) ([1]; PAMPA-BBB, PBS:EtOH (70:30), three experiments in triplicate): 0.90 ± 0.02 10−6 cm s^−1

Structure (SMILES): CCOP(=O)(OCC)[C@]1(c2ccccc2)N=C[C@H]2C(=O)N(c3ccc(C)cc3)C(=O)[C@H]21 (racemic) [Compound I-45, Diethyl (1RS,3aSR,6aSR)-4,6-dioxo-1-phenyl-5-(p-tolyl)-1,3a,4,5,6,6a-hexahydropyrrolo[3,4-c]pyrrole-1-phosphonate]
- Papp (in vitro): 8.75 ± 0.5 ×10⁻⁶ cm/s
- CNS Prediction [1]: CNS+ (compounds of high BBB permeation (CNS+): Pe (10^−6 cm s^−1)>5,179)

Structure (SMILES): CCOP(=O)(OCC)[C@]1(c2ccccc2)N=C[C@H]2C(=O)N(C(C)(C)C)C(=O)[C@H]21 (racemic) [Compound I-55, Diethyl (1RS,3aSR,6aSR)-5-(tert-butyl)-4,6-dioxo-1-phenyl-1,3a,4,5,6,6a-hexahydropyrrolo[3,4-c]pyrrole-1-phosphonate]
- Papp (in vitro): 6.3 ± 0.3 ×10⁻⁶ cm/s
- CNS Prediction [1]: CNS+ (compounds of high BBB permeation (CNS+): Pe (10^−6 cm s^−1)>5,179)

Structure (SMILES): CCOP(=O)(OCC)[C@@]1(Cc2ccccc2)N=C[C@H]2C(=O)N(c3ccccc3)C(=O)[C@H]21 (racemic) [Compound I-46, Diethyl (1RS,3aSR,6aSR)-1-benzyl-4,6-dioxo-5-phenyl-1,3a,4,5,6,6a-hexahydropyrrolo[3,4-c]pyrrole-1-phosphonate]
- Papp (in vitro): 6.9 ± 0.3 ×10⁻⁶ cm/s
- CNS Prediction [1]: CNS+ (compounds of high BBB permeation (CNS+): Pe (10^−6 cm s^−1)>5,179)

Structure (SMILES): CCOP(=O)(OCC)[C@]1(c2ccccc2)N=C[C@H]2C(=O)N(c3ccc(OC)cc3)C(=O)[C@H]21 (racemic) [Compound I-22, Diethyl (1RS,3aSR,6aSR)-5-(4-methoxyphenyl)-4,6-dioxo-1-phenyl-1,3a,4,5,6,6a-hexahydropyrrolo[3,4-c]pyrrole-1-phosphonate]
- Papp (in vitro): 3.9 ± 0.15 ×10⁻⁶ cm/s
- [^3H]-2-BFI I2 binding affinity (pKi) (I2-IR): 6.65 ± 1.27
- CNS Prediction [1]: CNS+/− (compounds of uncertain BBB permeation (CNS+/−): 5,179>Pe (10^−6 cm s^−1)>2,083)

Structure (SMILES): CCOP(=O)(OCC)[C@]1(c2ccccc2)N=C[C@H]2C(=O)N(c3ccc(C(F)(F)F)cc3)C(=O)[C@H]21 (racemic) [Compound I-38, Diethyl (1RS,3aSR,6aSR)-4,6-dioxo-1-phenyl-5-[4-(trifluoromethyl)phenyl]-1,3a,4,5,6,6a-hexahydropyrrolo[3,4-c]pyrrole-1-phosphonate]
- Papp (in vitro): 5.6 ± 0.15 ×10⁻⁶ cm/s
- CNS Prediction [1]: CNS+ (compounds of high BBB permeation (CNS+): Pe (10^−6 cm s^−1)>5,179)

Structure (SMILES): CCOP(=O)(OCC)[C@]1(c2ccccc2)N=C[C@H]2C(=O)N(CC)C(=O)[C@H]21 (racemic) [Compound I-54, Diethyl (1RS,3aSR,6aSR)-5-ethyl-4,6-dioxo-1-phenyl-1,3a,4,5,6,6a-hexahydropyrrolo[3,4-c]pyrrole-1-phosphonate]
- Papp (in vitro): 3.7 ± 0.5 ×10⁻⁶ cm/s
- CNS Prediction [1]: CNS+/− (compounds of uncertain BBB permeation (CNS+/−): 5,179>Pe (10^−6 cm s^−1)>2,083)

Structure (SMILES): CCOP(=O)(OCC)[C@]1(c2ccccc2)N=C[C@H]2C(=O)N(c3ccccc3)C(=O)[C@H]21 (racemic) [Compound I-16, Diethyl (1RS,3aSR,6aSR)-4,6-dioxo-1,5-diphenyl-1,3a,4,5,6,6a-hexahydropyrrolo[3,4-c]pyrrole-1-phosphonate]
- Papp (in vitro): 7.8 ± 0.6 ×10⁻⁶ cm/s
- [^3H]-2-BFI I2 binding affinity (pKi) (I2-IR): 10.28 ± 0.37
- CNS Prediction [1]: CNS+ (compounds of high BBB permeation (CNS+): Pe (10^−6 cm s^−1)>5,179)

Structure (SMILES): CCOP(=O)(OCC)[C@@]1(Cc2ccccc2)N=C[C@H]2C(=O)N(C3CCCCC3)C(=O)[C@H]21 (racemic) [Compound I-57, Diethyl (1RS,3aSR,6aSR)-1-benzyl-5-cyclohexyl-4,6-dioxo-1,3a,4,5,6,6a-hexahydropyrrolo[3,4-c]pyrrole-1-phosphonate]
- Papp (in vitro): 5.1 ± 0.01 ×10⁻⁶ cm/s
- CNS Prediction [1]: CNS+/− (compounds of uncertain BBB permeation (CNS+/−): 5,179>Pe (10^−6 cm s^−1)>2,083)

Structure (SMILES): CCOP(=O)(OCC)[C@]1(c2ccccc2)N=C[C@H]2C(=O)N(c3ccc(-c4ccccc4)cc3)C(=O)[C@H]21 (racemic) [Compound I-32, Diethyl (1RS,3aSR,6aSR)-5-(1,1′-biphenyl)-4-yl-4,6-dioxo-1-phenyl-1,3a,4,5,6,6a-hexahydropyrrolo[3,4-c]pyrrole-1-phosphonate]
- Papp (in vitro): 8.2 ± 0.3 ×10⁻⁶ cm/s
- [^3H]-2-BFI I2 binding affinity (pKi) (I2-IR): 7.90 ± 0.46
- CNS Prediction [1]: CNS+ (compounds of high BBB permeation (CNS+): Pe (10^−6 cm s^−1)>5,179)

Structure (SMILES): CCOP(=O)(OCC)[C@]1(c2ccccc2)N=C[C@H]2C(=O)N(c3ccc(Cl)c(Cl)c3)C(=O)[C@H]21 (racemic) [Compound I-44, Diethyl (1RS,3aSR,6aSR)-5-(3,4-dichlorophenyl)-4,6-dioxo-1-phenyl-1,3a,4,5,6,6a-hexahydropyrrolo[3,4-c]pyrrole-1-phosphonate]
- Papp (in vitro): 8.9 ± 0.3 ×10⁻⁶ cm/s
- CNS Prediction [1]: CNS+ (compounds of high BBB permeation (CNS+): Pe (10^−6 cm s^−1)>5,179)

Structure (SMILES): c1ccc2c(c1)OCC(C1=NCCN1)O2 (stereo not drawn) [Idazoxan, reference compound]
- [^3H]-2-BFI I2 binding affinity (pKi) (I2-IR): 7.27±0.07 and 7.41 ± 0.63

Structure (SMILES): CCOP(=O)(OCC)[C@]1(c2ccccc2)N=C[C@H]2C(=O)N(c3ccc(Oc4ccccc4)cc3)C(=O)[C@H]21 (racemic) [Compound I-34, Diethyl (1RS,3aSR,6aSR)-4,6-dioxo-5-(4-phenoxyphenyl)-1-phenyl-1,3a,4,5,6,6a-hexahydropyrrolo[3,4-c]pyrrole-1-phosphonate]
- Papp (in vitro): 6.5 ± 0.02 ×10⁻⁶ cm/s
- [^3H]-2-BFI I2 binding affinity (pKi) (I2-IR): 6.96 ± 0.30
- CNS Prediction [1]: CNS+ (compounds of high BBB permeation (CNS+): Pe (10^−6 cm s^−1)>5,179)

Structure (SMILES): CCOP(=O)(OCC)[C@]1(c2ccccc2)N=C[C@H]2C(=O)N(c3ccc(Cl)cc3)C(=O)[C@H]21 (racemic) [Compound I-49, Diethyl (1RS,3aSR,6aSR)-5-(4-chlorophenyl)-4,6-dioxo-1-phenyl-1,3a,4,5,6,6a-hexahydropyrrolo[3,4-c]pyrrole-1-phosphonate]
- Papp (in vitro): 5.5 ± 0.03 ×10⁻⁶ cm/s
- CNS Prediction [1]: CNS+ (compounds of high BBB permeation (CNS+): Pe (10^−6 cm s^−1)>5,179)

Structure (SMILES): CCOP(=O)(OCC)[C@]1(c2ccccc2)N=C[C@H]2C(=O)N(CCc3ccc(F)cc3)C(=O)[C@H]21 (racemic) [Compound I-36, Diethyl (1RS,3aSR,6aSR)-5-(4-fluorophenethyl)-4,6-dioxo-1-phenyl-1,3a,4,5,6,6a-hexahydropyrrolo[3,4-c]pyrrole-1-phosphonate]
- Papp (in vitro): 7.2 ± 0.45 ×10⁻⁶ cm/s
- CNS Prediction [1]: CNS+ (compounds of high BBB permeation (CNS+): Pe (10^−6 cm s^−1)>5,179)

Structure (SMILES): CCOP(=O)(OCC)[C@]1(c2ccccc2)N=C[C@H]2C(=O)N(C3CCCCC3)C(=O)[C@H]21 (racemic) [Compound I-07, Diethyl (1RS,3aSR,6aSR)-5-cyclohexyl-4,6-dioxo-1-phenyl-1,3a,4,5,6,6a-hexahydropyrrolo[3,4-c]pyrrole-1-phosphonate]
- Papp (in vitro): 25.9 ± 0.6 ×10⁻⁶ cm/s
- [^3H]-2-BFI I2 binding affinity (pKi) (I2-IR): 9.74 ± 0.29
- CNS Prediction [1]: CNS+ (compounds of high BBB permeation (CNS+): Pe (10^−6 cm s^−1)>5,179)

Structure (SMILES): CCOP(=O)(OCC)[C@]1(c2ccccc2)N=C[C@H]2C(=O)N(CCc3ccccc3)C(=O)[C@H]21 (racemic) [Compound I-33, Diethyl (1RS,3aSR,6aSR)-4,6-dioxo-5-phenethyl-1-phenyl-1,3a,4,5,6,6a-hexahydropyrrolo[3,4-c]pyrrole-1-phosphonate]
- Papp (in vitro): 6.2 ± 0.3 ×10⁻⁶ cm/s
- Selectivity I2/α2 (I2-IR): 182
- [^3H]-2-BFI I2 binding affinity (pKi) (I2-IR): 5.85 ± 0.18
- CNS Prediction [1]: CNS+ (compounds of high BBB permeation (CNS+): Pe (10^−6 cm s^−1)>5,179)

Structure (SMILES): CCOP(=O)(OCC)[C@]1(c2ccccc2)N=C[C@H]2C(=O)N(c3ccc(F)cc3)C(=O)[C@H]21 (racemic) [Compound I-37, Diethyl (1RS,3aSR,6aSR)-5-(4-fluorophenyl)-4,6-dioxo-1-phenyl-1,3a,4,5,6,6a-hexahydropyrrolo[3,4-c]pyrrole-1-phosphonate]
- Papp (in vitro): 3.2 ± 0.2 ×10⁻⁶ cm/s
- CNS Prediction [1]: CNS+/− (compounds of uncertain BBB permeation (CNS+/−): 5,179>Pe (10^−6 cm s^−1)>2,083)
